Experimental data from US10197581B2, “Vitamin D assays” (Enzo Life Sciences, Inc., priority 2013, dated 2019).
Where a name gives a salt, the structure may show the parent alone. Read-outs that look alike come from different tables or passages of the source.

How the values were obtained:
[1] = target: T1, vitamin D binding protein (DBP) (Homo sapiens, UniProt P02774); test: Screening of dissociation buffer components (release reagents) in the 25OHD ELISA; format: biochemical; settings: for release of 25OHD from DBP and maintaining 25OHD availability for antibody binding / tolerance in the assay: component of dissociation buffer; for effect towards dissociation of 25OHD from DBP: earlier experiments
T1 sequence (P02774 17-474): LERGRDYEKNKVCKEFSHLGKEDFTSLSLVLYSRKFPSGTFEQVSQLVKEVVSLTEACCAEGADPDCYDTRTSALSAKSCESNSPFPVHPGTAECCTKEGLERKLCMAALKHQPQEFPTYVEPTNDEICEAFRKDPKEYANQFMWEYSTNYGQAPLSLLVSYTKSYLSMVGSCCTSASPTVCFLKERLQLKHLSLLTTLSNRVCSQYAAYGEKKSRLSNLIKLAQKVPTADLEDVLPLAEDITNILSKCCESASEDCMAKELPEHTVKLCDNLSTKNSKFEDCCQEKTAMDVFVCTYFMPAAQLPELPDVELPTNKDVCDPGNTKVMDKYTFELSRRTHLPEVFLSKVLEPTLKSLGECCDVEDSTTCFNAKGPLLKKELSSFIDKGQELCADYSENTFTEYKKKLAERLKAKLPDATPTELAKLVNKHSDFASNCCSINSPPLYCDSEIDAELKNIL
Experimental: In order to optimize the ELISA 25OHD assay, components of the dissociation buffer, the assay buffer and the wash buffer, and conditions for performing various steps in the protocol were tested in the assay. Various reagents were tested alone or in combination for their effects on dissociation of 25OHD from DBP.
In addition, various types and concentrations of buffer salts (e.g., Tris, MES, citrate) were used in the dissociation buffers, assay buffers and wash buffers. Dissociation and wash buffers having a pH from 4-8 were tested. Dissocation was performed at different temperatures (RT, 37° C., 65° C.) and in different incubation vessels (polypropylene or polystyrene) and the competitive ELISA was performed using various different 25OHD conjugates.

[2] = target: T1, vitamin D binding protein (DBP); test: Release of bound 25OHD3 from DBP in serum samples at varied release reagent concentrations (ELISA); format: biochemical; parameters: from tissue; host or cells: human serum; settings: for percent inhibition by released 25OHD: vs controls with no 25OHD
Experimental: Each buffer was diluted to provide dissociation buffers with multiple concentrations of a single release reagent.

[3] = format: physicochemical
[4] = target: T1, vitamin D binding protein (DBP); test: Release of bound 25OHD3 from DBP in serum samples at varied release reagent concentrations (ELISA); format: biochemical; parameters: human serum containing 20 or 40 ng/mL 25OHD3 were treated with the various dissociation buffers; from tissue; host or cells: human serum; settings: major release reagents in combination
[5] = tested on: sheep monoclonal anti-25OHD antibody (Bioventix); test: Cross-reactivity of vitamin D metabolites in the optimized 25OHD competitive ELISA; format: binding; settings: for % cross-reactivity: determined at the OD corresponding to the ED50 of 25OHD3; for ED50: optimized 25OHD ELISA, metabolite serially diluted in Tris buffer
Experimental: Ten vitamin D metabolites were tested for cross-reactivity in the optimized 25OHD ELISA assay described above. New concentrated stock solutions were prepared from dry chemicals for all metabolites. For cross-reactivity testing, each metabolite was prepared and serially diluted in a Tris buffer. Metabolites and the concentration ranges tested are in Table 3. The metabolite solutions were used as samples and mixed with dissociation buffer and the assay carried out as previously described.

Compound	release of 25OHD from DBP and maintaining 25OHD availability for antibody binding [1]	% cross-reactivity [5] [%]	ED50 [5] [µg/mL]	further results
CC(C)O [2-isopropanol]	ineffective release reagents at concentrations that were tolerable in the assay			
O=C([O-])c1ccccc1O.[Na+] [sodium salicylate]	effective and generally compatible with the assay			preventing 25OHD re-uptake by DBP or binding to other cellular proteins/lipids [1]: appeared to be effective; effect towards dissociation of 25OHD from DBP [1]: did not show a large effect
CCCC[n+]1ccc(C)cc1.[Cl-]	effective and generally compatible with the assay			percent inhibition by released 25OHD ([2]; 20 ng/mL 25OHD3 serum sample, high end of 6-14% reagent range): 25%; percent inhibition by released 25OHD ([2]; 20 ng/mL 25OHD3 serum sample, low end of 6-14% reagent range): 12%; percent inhibition by released 25OHD ([2]; 40 ng/mL 25OHD3 serum sample, high end of 6-14% reagent range): 34%; percent inhibition by released 25OHD ([2]; 40 ng/mL 25OHD3 serum sample, low end of 6-14% reagent range): 16%; best percentage of individual release reagent (greatest gains in 25OHD release) ([2]; single release reagent in dissociation buffer): 14%; stability of dissociation buffer [3]: stable and could be stored at room temperature for weeks with no change in efficacy in the assay; optimal concentration for dissociation buffer formulation [4]: about 10%
C=C1CC[C@H](O)C/C1=C/C=C1\CCC[C@]2(C)[C@@H]([C@H](C)/C=C/[C@H](C)C(C)C)CC[C@@H]12 [Vitamin D2]		0.11	1.643	
C=C1/C(=C\C=C2/CCC[C@]3(C)[C@@H]([C@H](C)CCCC(C)(C)O)CC[C@@H]23)C[C@@H](O)C[C@@H]1O [1,25(OH)2VitaminD3]		27.9	0.00627	% cross-reactivity ([5]; listed as 1,25(OH)2D3): 28%
1-butyl-3-methylimidazolium octylsulfate	effective and generally compatible with the assay			
CCCCCCCCCCCCCC[N+](C)(C)CCCS(=O)(=O)[O-] [Zwittergent 3-14]				tolerance in the assay [1]: not tolerated in the assay
C[C@H](CCC(=O)NCCC[N+](C)(C)CCCS(=O)(=O)[O-])[C@H]1CC[C@H]2[C@@H]3[C@H](O)C[C@@H]4C[C@H](O)CC[C@]4(C)[C@H]3C[C@H](O)[C@]12C [CHAPS]	did not aid in dissociating 25OHD from DBP			
CCCCn1cc[n+](C)c1.F[B-](F)(F)F [1-butyl-3-methylimidazolium tetrafluoroborate]	effective and generally compatible with the assay			
casein				effect on absorbance signal and dynamic signal range ([1]; protein at or above 0.5% in the assay): negatively impacted absorbance signal and dynamic signal range
C=C1CCC(O)C/C1=C\C=C1\CCCC2(C)C1CCC2C(C)CCC(O)C(C)(C)O (centres unmarked) [24,25(OH)2VitaminD3]		1.25	0.14	detection by the anti-25OHD antibody ([5]; 25OHD assay): neither the parent vitamin compounds nor the 24,25(OH)2VitaminD3 metabolite was detected to any appreciable degree
CCCCCCCCCCCCOS(=O)(=O)[O-].[Na+] [SDS, sodium dodecyl sulfate]	did not aid in dissociating 25OHD from DBP			
CCCCC/C=C\C/C=C\C/C=C\C/C=C\CCCC(=O)O [Arachidonic acid, arachidonic acid]	did not aid in dissociating 25OHD from DBP			
N=C(N)N [guanidine HCl]	did not aid in dissociating 25OHD from DBP			
O=C(O)CCP(CCC(=O)O)CCC(=O)O [TCEP]	did not aid in dissociating 25OHD from DBP			
methyl β-cyclodextrin	effective and generally compatible with the assay			preventing 25OHD re-uptake by DBP or binding to other cellular proteins/lipids [1]: appeared to be effective; effect towards dissociation of 25OHD from DBP [1]: did not show a large effect

Compound	release of 25OHD from DBP and maintaining 25OHD availability for antibody binding [1]	% cross-reactivity [5] [%]	ED50 [5] [µg/mL]	further results
CCCC[n+]1ccc(C)cc1.F[B-](F)(F)F	effective and generally compatible with the assay			time after manufacture until dissociation buffer became unreliable [3]: ≤ 7 days; pH of the dissociation buffer ([3]; after 1.5 days): 4.7; pH of the dissociation buffer ([3]; after 4 days): 4.07; pH of the dissociation buffer ([3]; after 7 day): 3.46; pH of the dissociation buffer ([3]; after 8 days): 2.79; pH of the dissociation buffer ([3]; after 9 days): 2.43; pH of the dissociation buffer ([3]; freshly made): 5.2
Triton X-100				tolerance in the assay [1]: not tolerated in the assay
C=C1CC[C@H](O)C/C1=C/C=C1\CCC[C@]2(C)[C@@H]([C@H](C)CCCC(C)C)CC[C@@H]12 [Vitamin D3]		0.01	23.5	
C=C1/C(=C\C=C2/CCC[C@]3(C)[C@@H]([C@H](C)/C=C/[C@H](C)C(C)(C)O)CC[C@@H]23)C[C@@H](O)C[C@@H]1O [1,25(OH)2VitaminD2]		94.1	0.00186	% cross-reactivity ([5]; listed as 1,25(OH)2D2): 94%
O[C@@H](CS)[C@@H](O)CS [DTT]	did not aid in dissociating 25OHD from DBP			
CCO [ethanol]	ineffective release reagents at concentrations that were tolerable in the assay			
CO [methanol]	ineffective release reagents at concentrations that were tolerable in the assay			
C=C1CC[C@H](O)C/C1=C/C=C1\CCC[C@]2(C)[C@@H]([C@H](C)/C=C/[C@H](C)C(C)(C)O)CC[C@@H]12 [25(OH)VitaminD2]		87.94	0.00199	% cross-reactivity ([5]; listed as 25OHD2): 88%
O=C(O)CN(CCN(CC(=O)O)CC(=O)O)CC(=O)O [EDTA]	did not aid in dissociating 25OHD from DBP			
NP-40				tolerance in the assay [1]: not tolerated in the assay
C=C1CC[C@H](O)C/C1=C/C=C1\CCC[C@]2(C)[C@@H]([C@H](C)CCCC(C)(C)O)CC[C@@H]12 [25(OH)VitaminD3]		100	0.00175	
C=C1CC[C@@H](O)C/C1=C/C=C1\CCC[C@]2(C)[C@@H]([C@H](C)CCCC(C)(C)O)CC[C@@H]12 [3-epi-25(OH)VitaminD3]		50.87	0.00344	% cross-reactivity ([5]; listed as 3-epimer of 25(OH)VitaminD3): 51%
C=C1/C(=C\C=C2/CCC[C@]3(C)[C@@H]([C@H](C)CCCC(C)C)CC[C@@H]23)C[C@@H](O)C[C@@H]1O [1α(OH)VitaminD3]		0.04	4.03	
CC#N [Acetonitrile, acetonitrile]	ineffective release reagents at concentrations that were tolerable in the assay			
CCCCCCCCCCCC(=O)OCCOCCOCCOCCOCCOCCOCCOCCOCCOCCOCCOCCOCCOCCOCCOCCOCCOCCOCCOCCOCC(OCCOCCOCCOCCOCCOCCOCCOCCOCCOCCOCCOCCOCCOCCOCCOCCOCCOCCOCCOCCO)C1OCC(OCCOCCOCCOCCOCCOCCOCCOCCOCCOCCOCCOCCOCCOCCOCCOCCOCCOCCOCCOCCO)C1OCCOCCOCCOCCOCCOCCOCCOCCOCCOCCOCCOCCOCCOCCOCCOCCOCCOCCOCCOCCO (centres unmarked) [Tween-20, Polysorbate 20]	did not aid in dissociating 25OHD from DBP			
C=C1/C(=C\C=C2/CCC[C@]3(C)[C@@H]([C@H](C)/C=C/[C@H](C)C(C)C)CC[C@@H]23)C[C@@H](O)C[C@@H]1O [1α(OH)VitaminD2]		<0.01	1.43	
